Laboratory results from patent US20080200439A1, “Methods and compositions for modulating BK channel activity and vasodilation” (University of Tennessee Research Foundation, priority 2006, published 2008).

Columns and labels:
[1] = system: pressurized cerebral arteries from wt mice; assay: Artery diameter measurement, pressurized cerebral arteries from wt C57BL/6 mice; design: species or system mouse
Protocol: Artery Diameter Measurement. Middle cerebral arteries were isolated from adult male Sprague-Dawley rats (=250 g) or 8- to 12-week-old β1-knockout and C57BL/6 control mice. Rats and mice were decapitated using a guillotine and sharp scissors, respectively. These procedures were approved by the Institutional Animal Care and Use Committee from The University of Tennessee Health Science Center, an AMLAC-accredited institution. Pressurization of arteries was performed as described (Liu et al., 2004). Endothelium was removed by passing an air bubble into the vessel lumen for 90 sec. Diameter changes were monitored through an inverted microscope (Nikon Eclipse TS100, Nikon Corp., Tokyo, Japan), recorded on camera (Sanyo VCB-3512T, Sanyo Electric Corp., Japan), and transferred to a computer. Diameter data were acquired and analyzed using IonWizard 4.4 software (IonOptics Corp., Milton, Mass., United States of America). […]
Data Analysis. […] Arterial diameter and electrophysiological data were analyzed with IonWizard 4.4 (IonOptics Corp., Milton, Mass., United States of America) and pCLAMP 8.0 (Molecular Devices, Union City, Calif., United States of America). […]
To determine the impact of LC targeting of BK β1-subunits on organ function, LC action on the arterial diameter of pressurized cerebral arteries was evaluated from β1-knockout vs. wt C57BU6 mice (controls). […]

cbv1+β4 channels = molecular target: T1, cbv1+β4 channels (Rattus norvegicus, UniProt Q62976); assay: Patch-clamp of cbv1+β4 channels expressed in Xenopus oocytes; type: cell-based
T1 construct: Full-length cDNA coding for cbv1-subunits was cloned from rat cerebral artery myocytes by PCR; expressed in transfected cells; host or cells: Xenopus laevis oocytes (cRNA co-injection)
Description: cRNA Preparation and Injection into Xenopus Oocytes. Full-length cDNA coding for cbv1-subunits was cloned from rat cerebral artery myocytes by PCR and ligated to the PCR-XL-TOPO cloning vector (Invitrogen Corp., Carlsbad, Calif., United States of America) (Jaggar et al., 2005). cDNA coding for cbv1-subunits was cleaved from the cloning vector by BamHI (Invitrogen Corp., Carlsbad, Calif., United States of America) and XhoI (Promega, Madison, Wis., United States of America) and directly inserted into the pOX vector for expression in Xenopus oocytes. pOX-cbv1 was linearized with NotI (Promega, Madison, Wis., United States of America) and transcribed in vitro using T3 polymerase. […]
Electrophysiology. […] Single-channel and macroscopic currents were recorded from inside-out (I/O) or outside-out (O/O) patches. […] Nominal free Ca^2+ was calculated with MaxChelator Sliders (C. Patton, Stanford University, California, United States of America) and validated experimentally using Ca^2+-selective electrodes (Corning Incorporated Science Products Division, Corning, N.Y., United States of America). […]
Currents were recorded using an EPC8 amplifier (HEKA Electronics, Lambrecht/Pfalz, Germany) at 1 kHz using a low-pass, eight-pole Bessel filter 902LPF (Frequency Devices, Haverhill, Mass., United States of America). […]

T1 sequence (Q62976 1-1148 isoform Q62976-2): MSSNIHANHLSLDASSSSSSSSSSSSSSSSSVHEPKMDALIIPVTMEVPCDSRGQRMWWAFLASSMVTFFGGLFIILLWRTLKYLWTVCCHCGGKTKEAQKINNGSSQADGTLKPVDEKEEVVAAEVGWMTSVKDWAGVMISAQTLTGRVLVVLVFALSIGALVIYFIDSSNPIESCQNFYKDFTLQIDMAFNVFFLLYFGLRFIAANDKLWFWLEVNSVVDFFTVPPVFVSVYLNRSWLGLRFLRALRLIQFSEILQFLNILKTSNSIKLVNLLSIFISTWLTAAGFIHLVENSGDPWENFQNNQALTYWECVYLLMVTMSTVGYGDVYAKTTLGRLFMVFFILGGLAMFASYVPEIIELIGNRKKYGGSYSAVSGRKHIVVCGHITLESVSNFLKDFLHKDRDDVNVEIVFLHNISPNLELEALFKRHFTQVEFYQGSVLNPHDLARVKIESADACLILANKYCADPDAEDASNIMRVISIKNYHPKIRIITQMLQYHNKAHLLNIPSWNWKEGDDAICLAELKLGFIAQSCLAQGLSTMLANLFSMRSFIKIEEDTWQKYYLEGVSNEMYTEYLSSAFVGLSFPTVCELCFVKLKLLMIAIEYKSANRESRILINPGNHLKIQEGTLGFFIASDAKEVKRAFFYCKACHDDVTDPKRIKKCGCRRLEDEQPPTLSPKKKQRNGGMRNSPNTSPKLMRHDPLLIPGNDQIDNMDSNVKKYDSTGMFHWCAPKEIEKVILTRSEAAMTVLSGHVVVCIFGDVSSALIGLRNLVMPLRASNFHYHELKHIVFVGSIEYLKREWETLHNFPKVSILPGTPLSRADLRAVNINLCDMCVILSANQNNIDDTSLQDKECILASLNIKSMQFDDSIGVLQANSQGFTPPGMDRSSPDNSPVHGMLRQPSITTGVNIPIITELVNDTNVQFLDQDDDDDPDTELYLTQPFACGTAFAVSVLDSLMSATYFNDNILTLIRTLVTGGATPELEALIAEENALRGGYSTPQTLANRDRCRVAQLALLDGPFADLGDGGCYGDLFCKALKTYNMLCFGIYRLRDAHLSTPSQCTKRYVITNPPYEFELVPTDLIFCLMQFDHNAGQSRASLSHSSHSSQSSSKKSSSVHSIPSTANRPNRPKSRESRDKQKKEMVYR
T1 sequence (Q86W47 whole entry partner): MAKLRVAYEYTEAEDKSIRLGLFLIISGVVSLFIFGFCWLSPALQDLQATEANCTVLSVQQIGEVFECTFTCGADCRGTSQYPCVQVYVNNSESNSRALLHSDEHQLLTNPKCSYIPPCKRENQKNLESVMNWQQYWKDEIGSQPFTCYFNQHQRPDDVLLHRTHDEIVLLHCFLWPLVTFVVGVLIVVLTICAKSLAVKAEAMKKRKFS

C[C@H](CCC(=O)O)[C@H]1CC[C@H]2[C@@H]3CC[C@@H]4C[C@H](O)CC[C@]4(C)[C@H]3CC[C@]12C [LC, 5β-cholanic acid 3α-ol]
Increase in diameter from initial diameter ([1]; 45 μM, wt mouse cerebral arteries): +4.4±0.9% | remaining activity at 150 µM (cbv1+β4 channels; 150 μM, I/O patches, conditions identical to cbv1 and cbv1+β1, read-out: NPo (% of control)): 109 ± 11%

iberiotoxin (QFTDVDCSVSKECWSVCKDLFGVDRGKCMGKKCRCYQ; UniProt P24663 1-37, looked up) [Ibtx, reference compound]
Decrease from initial diameter (vasoconstriction) ([1]; 55 nM, within 15 min of application, control mice): −8.7±4.2% | Block of channel NPo (cbv1+β4 channels; 55 nM, protracted exposure): resistance to block
